# Reference: PubChem BioAssay AID1963848 (Molecular Pharmacology Branch, DTP, NCI, 2024)
# Test system: 379773-124-R-J2-PDC spheroid viability
# Experiment: Anticancer human tumor 379773-124-R-J2-PDC patient-derived endometrial carcinoma cell line growth inhibition [POLQ]
# Conditions: spheroids with HUVEC and MSC; for IC50: curve of first compound; for viability, T/C: stronger effect = lower value
# Procedure, shortened: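 Complex spheroid viability model combining PDC tumour cells with endothelial (HUVEC) and MSC stromal cells. Novobiocin, ART-558 or RP6685 were tested singly and in combination with standard and investigational anticancer drugs. Each was titrated in half-log steps from near clinical Cmax, or from 10 microM where Cmax was unknown.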
# [1] = second compound 0.0316 µM, first compound 0.0316 µM
# [2] = second compound 0.0316 µM, first compound 0.1 µM
# [3] = second compound 0.0316 µM, first compound 0.316 µM
# [4] = second compound 0.0316 µM, first compound 1 µM
# [5] = second compound 0.0316 µM, first compound 3.16 µM
# [6] = second compound 0.0316 µM, first compound 10 µM
# [7] = second compound 0.1 µM, first compound 0.0316 µM
# [8] = second compound 0.1 µM, first compound 0.1 µM
# [9] = second compound 0.1 µM, first compound 0.316 µM
# [10] = second compound 0.1 µM, first compound 1 µM
# [11] = second compound 0.1 µM, first compound 3.16 µM
# [12] = second compound 0.1 µM, first compound 10 µM
# [13] = second compound 0.316 µM, first compound 0.0316 µM
# [14] = second compound 0.316 µM, first compound 0.1 µM
# [15] = second compound 0.316 µM, first compound 0.316 µM
# [16] = second compound 0.316 µM, first compound 1 µM
# [17] = second compound 0.316 µM, first compound 3.16 µM
# [18] = second compound 0.316 µM, first compound 10 µM
# [19] = second compound 1 µM, first compound 0.0316 µM
# [20] = second compound 1 µM, first compound 0.1 µM
# [21] = second compound 1 µM, first compound 0.316 µM
# [22] = second compound 1 µM, first compound 1 µM
# [23] = second compound 1 µM, first compound 3.16 µM
# [24] = second compound 1 µM, first compound 10 µM
# [25] = second compound 3.16 µM, first compound 0.0316 µM
# [26] = second compound 3.16 µM, first compound 0.1 µM
# [27] = second compound 3.16 µM, first compound 0.316 µM
# [28] = second compound 3.16 µM, first compound 1 µM
# [29] = second compound 3.16 µM, first compound 3.16 µM
# [30] = second compound 3.16 µM, first compound 10 µM
# [31] = second compound 10 µM, first compound 0.0316 µM
# [32] = second compound 10 µM, first compound 0.1 µM
# [33] = second compound 10 µM, first compound 0.316 µM
# [34] = second compound 10 µM, first compound 1 µM
# [35] = second compound 10 µM, first compound 3.16 µM
# [36] = second compound 10 µM, first compound 10 µM
# 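Also: spheroids exposed to drugs for seven days before readout.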
# 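For viability, T/C in this document: percent viability relative to DMSO vehicle control taken as 100%.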
structure (smiles),measurement,setting,value
CCc1cc2c(N3CCc4c(cc(Cn5ccnc5)cc4-c4cn(C)nc4C(F)(F)F)C3=O)ccnc2c(OC)n1 + COC1C(OC(N)=O)C(O)C(Oc2ccc3c(O)c(NC(=O)c4ccc(O)c(CC=C(C)C)c4)c(=O)oc3c2C)OC1(C)C,IC50,second compound 0.0316 µM,3420 nM
same,IC50,second compound 0.1 µM,2600 nM
same,IC50,second compound 0.316 µM,2420 nM
same,IC50,second compound 1 µM,3580 nM
same,IC50,second compound 3.16 µM,1790 nM
same,IC50,second compound 10 µM,> 10000 nM
same,"viability, T/C",[1],79.6%
same,"viability, T/C",[2],68.7%
same,"viability, T/C",[3],62.5%
same,"viability, T/C",[4],58.6%
same,"viability, T/C",[5],52.4%
same,"viability, T/C",[6],42.6%
same,"viability, T/C",[7],79.5%
same,"viability, T/C",[8],64.2%
same,"viability, T/C",[9],59.7%
same,"viability, T/C",[10],56.1%
same,"viability, T/C",[11],52.3%
same,"viability, T/C",[12],42.3%
same,"viability, T/C",[13],75.8%
same,"viability, T/C",[14],68%
same,"viability, T/C",[15],59.1%
same,"viability, T/C",[16],57.2%
same,"viability, T/C",[17],48.2%
same,"viability, T/C",[18],42.3%
same,"viability, T/C",[19],66.7%
same,"viability, T/C",[20],65.4%
same,"viability, T/C",[21],58.3%
same,"viability, T/C",[22],58.1%
same,"viability, T/C",[23],49.5%
same,"viability, T/C",[24],44.7%
same,"viability, T/C",[25],77.7%
same,"viability, T/C",[26],65%
same,"viability, T/C",[27],55.6%
same,"viability, T/C",[28],53.4%
same,"viability, T/C",[29],52%
same,"viability, T/C",[30],42.1%
same,"viability, T/C",[31],83.3%
same,"viability, T/C",[32],59.6%
same,"viability, T/C",[33],64.2%
same,"viability, T/C",[34],63.8%
same,"viability, T/C",[35],51.1%
same,"viability, T/C",[36],51.1%
CC1COCCN1c1cc(C2(O)CC3CCC(C2)O3)c2cnn(-c3ccn[nH]3)c2n1 (centres undefined) + Nc1ccc(C#CCN(C(=O)Cc2ncc(C(F)(F)F)cc2C(F)(F)F)c2ccc(F)cc2)nn1,IC50,second compound 0.0316 µM,128 nM
same,IC50,second compound 0.1 µM,104 nM
same,IC50,second compound 0.316 µM,121 nM
same,IC50,second compound 1 µM,107 nM
same,IC50,second compound 3.16 µM,126 nM
same,IC50,second compound 10 µM,114 nM
same,"viability, T/C",[1],110%
same,"viability, T/C",[2],59.9%
same,"viability, T/C",[3],13.5%
same,"viability, T/C",[4],12.8%
same,"viability, T/C",[5],11.2%
same,"viability, T/C",[6],4.19%
same,"viability, T/C",[7],92%
same,"viability, T/C",[8],51.4%
same,"viability, T/C",[9],16%
same,"viability, T/C",[10],14%
same,"viability, T/C",[11],10.2%
same,"viability, T/C",[12],3.29%
same,"viability, T/C",[13],83.2%
same,"viability, T/C",[14],56.6%
same,"viability, T/C",[15],16.1%
same,"viability, T/C",[16],11.8%
same,"viability, T/C",[17],10.4%
same,"viability, T/C",[18],4.27%
same,"viability, T/C",[19],86.9%
same,"viability, T/C",[20],52.5%
same,"viability, T/C",[21],16.4%
same,"viability, T/C",[22],13.6%
same,"viability, T/C",[23],8.92%
same,"viability, T/C",[24],3.67%
same,"viability, T/C",[25],83%
same,"viability, T/C",[26],59.3%
same,"viability, T/C",[27],12.5%
same,"viability, T/C",[28],11.8%
same,"viability, T/C",[29],9.65%
same,"viability, T/C",[30],3.56%
same,"viability, T/C",[31],82.8%
same,"viability, T/C",[32],54.5%
same,"viability, T/C",[33],18.5%
same,"viability, T/C",[34],14.6%
same,"viability, T/C",[35],9.99%
same,"viability, T/C",[36],3.04%
